The record followed here is patent publication US11787802B2, “Dihydrobenzimidazolones for medical treatment” (C4 Therapeutics, Inc., priority 2017, dated 2023).

This assay deals with hCereblon(M1-L442)_hDDB1(M1-H1140) (Homo sapiens (Human), UniProt Q96SW2). The experiment in a line: Fluorescence direct binding protocol (tryptophan fluorescence titration). The following applies: fluorescence titration at 20° C., excited at 280 nm, recorded at 340 nm; protein 5.0 E−8 M; assay buffer 50 mM Hepes 7.4 200 mM NaCl; read-out: Fluorescence h-Cereblon_DDB1 Mean Kd_EQ. In outline: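 At 20° C., protein at constant concentration was titrated with ligand in DMSO over at least 12 steps, exciting tryptophan at 280 nm and reading emission at 340 nm. Intensities were corrected for dilution and filter effect, and Kd was fitted assuming 1:1 binding.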
hCereblon(M1-L442)_hDDB1(M1-H1140), sequence (Q96SW2 whole entry): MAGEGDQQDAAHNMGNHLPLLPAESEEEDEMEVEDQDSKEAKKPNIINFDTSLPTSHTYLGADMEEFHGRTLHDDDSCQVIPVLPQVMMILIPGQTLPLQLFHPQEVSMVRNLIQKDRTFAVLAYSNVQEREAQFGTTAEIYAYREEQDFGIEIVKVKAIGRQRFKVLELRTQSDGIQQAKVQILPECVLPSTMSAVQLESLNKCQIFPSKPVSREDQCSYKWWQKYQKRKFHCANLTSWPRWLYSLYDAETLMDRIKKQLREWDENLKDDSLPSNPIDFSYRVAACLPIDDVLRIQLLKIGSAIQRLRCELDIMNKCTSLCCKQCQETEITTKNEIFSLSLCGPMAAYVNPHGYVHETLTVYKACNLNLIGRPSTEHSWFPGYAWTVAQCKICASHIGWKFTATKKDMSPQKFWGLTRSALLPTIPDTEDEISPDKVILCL
hCereblon(M1-L442)_hDDB1(M1-H1140), sequence (Q16531 whole entry partner): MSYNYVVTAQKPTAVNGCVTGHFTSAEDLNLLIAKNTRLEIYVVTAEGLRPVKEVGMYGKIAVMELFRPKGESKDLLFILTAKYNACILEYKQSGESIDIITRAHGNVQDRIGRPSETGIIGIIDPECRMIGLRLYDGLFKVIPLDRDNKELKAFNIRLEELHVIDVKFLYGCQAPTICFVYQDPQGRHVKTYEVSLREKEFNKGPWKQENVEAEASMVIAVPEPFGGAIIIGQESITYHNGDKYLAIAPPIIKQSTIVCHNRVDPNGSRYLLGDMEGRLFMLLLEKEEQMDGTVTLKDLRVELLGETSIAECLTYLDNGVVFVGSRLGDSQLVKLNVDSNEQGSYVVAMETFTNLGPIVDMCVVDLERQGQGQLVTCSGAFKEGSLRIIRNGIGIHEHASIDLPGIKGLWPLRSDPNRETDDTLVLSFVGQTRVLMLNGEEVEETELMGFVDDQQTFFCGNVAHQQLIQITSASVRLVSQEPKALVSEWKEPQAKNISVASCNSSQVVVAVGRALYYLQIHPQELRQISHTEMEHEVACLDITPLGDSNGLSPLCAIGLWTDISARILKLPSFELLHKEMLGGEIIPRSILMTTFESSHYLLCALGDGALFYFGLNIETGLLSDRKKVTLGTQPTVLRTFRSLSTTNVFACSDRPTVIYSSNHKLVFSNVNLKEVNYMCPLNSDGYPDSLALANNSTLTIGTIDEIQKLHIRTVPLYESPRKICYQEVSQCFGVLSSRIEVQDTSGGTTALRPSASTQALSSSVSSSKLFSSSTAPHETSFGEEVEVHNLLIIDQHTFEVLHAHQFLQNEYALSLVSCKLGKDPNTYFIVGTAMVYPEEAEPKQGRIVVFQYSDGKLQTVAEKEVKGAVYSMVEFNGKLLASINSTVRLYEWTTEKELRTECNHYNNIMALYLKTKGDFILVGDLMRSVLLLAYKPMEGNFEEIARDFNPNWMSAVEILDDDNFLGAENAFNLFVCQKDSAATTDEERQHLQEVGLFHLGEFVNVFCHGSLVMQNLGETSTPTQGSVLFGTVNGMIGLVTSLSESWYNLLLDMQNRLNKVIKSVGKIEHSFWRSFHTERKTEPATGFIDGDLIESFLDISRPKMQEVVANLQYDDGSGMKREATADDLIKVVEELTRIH

Take `CNC(=O)c1ccc2c(c1)nc(-c1cc(-c3cncn3C)nc3ccccc13)n2-c1ccc2[nH]c(=O)[nH]c2c1` [Example 2, N-Methyl-2-(2-(1-methyl-1H-imidazol-5-yl)quinolin-4-yl)-2′-oxo-2′,3′-dihydro-1′H-[1,5′-bibenzo[d]imidazole]-5-carboxamide]: the Kd turned out to be 0.028 µM.
`O=C(Nc1ccccc1)Nc1ccc2[nH]c(=O)[nH]c2c1` [Example 88, 1-(2-Oxo-2,3-dihydro-1H-benzo[d]imidazol-5-yl)-3-phenylurea]: the Kd came out at 0.017 µM.
Regarding `O=C(Nc1ccc2[nH]c(=O)[nH]c2c1)c1ccccc1` [Example 73, N-(2-Oxo-2,3-dihydro-1H-benzo[d]imidazol-5-yl)benzamide], the Kd came out at 0.011 µM.
The figure for `Cn1cncc1-c1cc(-c2nc3cc(C(N)=O)ccc3n2-c2ccc3[nH]c(=O)[nH]c3c2)c2ccccc2n1` [Example 113, 2-(2-(1-Methyl-1H-imidazol-5-yl)quinolin-4-yl)-2′-oxo-2′,3′-dihydro-1′H-[1,5′-bibenzo[d]imidazole]-5-carboxamide] is 0.899 µM; for `O=C(NC1CCNCC1)c1ccc2[nH]c(=O)[nH]c2c1` [Example 51, 2-Oxo-N-(4-piperidyl)-1,3-dihydrobenzimidazole-5-carboxamide] it is 0.138 µM; for `CNC(=O)c1ccc2c(c1)nc(C(C)C)n2-c1cnc2[nH]c(=O)[nH]c2c1` [Example 79, 2-Isopropyl-N-methyl-1-(2-oxo-1,3-dihydroimidazo[4,5-b]pyridin-6-yl)benzimidazole-5-carboxamide] it is 0.004 µM.
For the compound `CC(=O)NC1CCN(C(=O)c2ccc3[nH]c(=O)[nH]c3c2)CC1` [Example 29, N-(1-(2-Oxo-2,3-dihydro-1H-benzo[d]imidazole-5-carbonyl)piperidin-4-yl)acetamide], the Kd was 0.02 µM.
Then `CCCc1nc2cc(C(=O)NC)ccc2n1-c1ccc2[nH]c(=O)[nH]c2c1` [Example 14, N-Methyl-2′-oxo-2-propyl-2′,3′-dihydro-1′H-[1,5′-bibenzo[d]imidazole]-5-carboxamide], with 0.321 µM.
The figure for `COC(=O)c1ccc2nc(C(C)C)n(-c3ccc4[nH]c(=O)[nH]c4c3)c2c1` [Example 48, Methyl 2-isopropyl-2′-oxo-2′,3′-dihydro-1′H-[1,5′-bibenzo[d]imidazole]-6-carboxylate] is 0.011 µM; for `COC(=O)c1cccc2c1CCCN2C(=O)Nc1ccc2[nH]c(=O)[nH]c2c1` [Example 98, Methyl 1-((2-oxo-2,3-dihydro-1H-benzo[d]imidazol-5-yl)carbamoyl)-1,2,3,4-tetrahydroquinoline-5-carboxylate] it is 0.086 µM; for `O=C(c1ccc2[nH]c(=O)[nH]c2c1)N1CCc2ccccc21` [Example 24, 5-(Indoline-1-carbonyl)-1H-benzo[d]imidazol-2(3H)-one] it is 0.001 µM.
For `CNS(=O)(=O)c1ccc(CC(=O)Nc2ccc3[nH]c(=O)[nH]c3c2)cc1` [Example 106, 2-(4-(N-Methylsulfamoyl)phenyl)-N-(2-oxo-2,3-dihydro-1H-benzo[d]imidazol-5-yl)acetamide], the Kd is 0.001 µM.
For the compound `O=c1[nH]c2cc(-c3ccccc3OCc3ccccc3)cnc2[nH]1` [Example 104, 6-(2-(Benzyloxy)phenyl)-1,3-dihydro-2H-imidazo[4,5-b]pyridin-2-one], the Kd is 0.014 µM.
The figure for `CNC(=O)c1ccc2c(c1)nc(Cc1cccc(OC)c1)n2-c1ccc2[nH]c(=O)[nH]c2c1` [Example 28, 2-(3-Methoxybenzyl)-N-methyl-2′-oxo-2′,3′-dihydro-1′H-[1,5′-bibenzo[d]imidazole]-5-carboxamide] is 0.012 µM; for `CNC(=O)c1ccc2c(c1)nc(-c1cnc[nH]1)n2-c1ccc2[nH]c(=O)[nH]c2c1` [Example 15, 2-(1H-Imidazol-4-yl)-N-methyl-2′-oxo-2′,3′-dihydro-1′H-[1,5′-bibenzo[d]imidazole]-5-carboxamide] it is 0.049 µM.
Regarding `CNC(=O)c1ccc2c(c1)nc(-c1cccc(COC)c1)n2-c1ccc2[nH]c(=O)[nH]c2c1` [Example 57, 2-(3-(Methoxymethyl)phenyl)-N-methyl-2′-oxo-2′,3′-dihydro-1′H-[1,5′-bibenzo[d]imidazole]-5-carboxamide], the Kd amounted to 0.007 µM.
As to `Cn1ccc(-c2cccc(NC(=O)c3ccc4[nH]c(=O)[nH]c4c3)c2)n1` [Example 130, N-(3-(1-Methyl-1H-pyrazol-3-yl)phenyl)-2-oxo-2,3-dihydro-1H-benzo[d]imidazole-5-carboxamide], the Kd was 0.781 µM.
For the compound `O=c1[nH]c2ccc(N3C[C@H]4CC[C@@H](C3)N4)cc2[nH]1` [Example 59, 5-[rac-(1S,5R)-3,8-diazabicyclo[3.2.1]octan-3-yl]-1,3-dihydrobenzimidazol-2-one], the Kd turned out to be 0.006 µM.
For `O=c1[nH]c2ccc(-c3ccnc(Cl)c3)cc2[nH]1` [Example 20, 5-(2-Chloropyridin-4-yl)-1H-benzo[d]imidazol-2(3H)-one], the Kd amounted to 0.068 µM.
As to `O=C(c1nc2ccccc2n1-c1ccc2[nH]c(=O)[nH]c2c1)N1CCCCC1` [Example 103, 5-[2-(Piperidine-1-carbonyl)benzimidazol-1-yl]-1,3-dihydrobenzimidazol-2-one], the Kd stood at 0.035 µM.
Consider `O=C(Nc1ccc2[nH]c(=O)[nH]c2c1)C1CCc2ccccc21` (centres unmarked) [Example 69, N-(2-Oxo-2,3-dihydro-1H-benzo[d]imidazol-5-yl)-2,3-dihydro-1H-indene-1-carboxamide], for which the Kd was found to be 0.029 µM.
With `Cn1c(=O)n(C)c2cc(Nc3ccccc3[N+](=O)[O-])ccc21` [Example 49, 1,3-Dimethyl-5-((2-nitrophenyl)amino)-1,3-dihydro-2H-benzo[d]imidazol-2-one], the Kd amounted to 0.023 µM.
On to `CNC(=O)c1ccc2c(c1)nc(C1(c3ccccc3)CC1)n2-c1ccc2[nH]c(=O)[nH]c2c1` [Example 114, N-Methyl-2′-oxo-2-(1-phenylcyclopropyl)-2′,3′-dihydro-1′H-[1,5′-bibenzo[d]imidazole]-5-carboxamide], for which the Kd came out at 0.008 µM.
Regarding `COc1ccc(Cc2ccc3[nH]c(=O)[nH]c3c2)cc1` [Example 39, 5-[(4-Methoxyphenyl)methyl]-1,3-dihydrobenzimidazol-2-one], the Kd was determined as 0.006 µM.
For the compound `Nc1ccccc1Nc1ccc2[nH]c(=O)[nH]c2c1` [Example 6, 5-((2-Aminophenyl)amino)-1H-benzo[d]imidazol-2(3H)-one], the Kd came out at 0.054 µM.
For `O=C(Nc1ccccc1)c1ccc2[nH]c(=O)[nH]c2c1` [Example 77, 2-Oxo-N-phenyl-2,3-dihydro-1H-benzo[d]imidazole-5-carboxamide], the Kd stood at 0.042 µM.
With `O=C(Nc1ccc2[nH]c(=O)[nH]c2c1)[C@H]1CCCc2ccccc21` [Example 71, (S)—N-(2-Oxo-2,3-dihydro-1H-benzo[d]imidazol-5-yl)-1,2,3,4-tetrahydronaphthalene-1-carboxamide], the Kd was determined as 0.016 µM.
`O=c1[nH]c2ccc(-n3ccnc3-c3ccnc4ccccc34)cc2[nH]1` [Example 12, 5-(2-(Quinolin-4-yl)-1H-imidazol-1-yl)-1H-benzo[d]imidazol-2(3H)-one]: the Kd amounted to 0.001 µM.
Turning to `O=c1[nH]c2ccc(N3CCNCC3)cc2[nH]1` [Example 58, 5-(Piperazin-1-yl)-1,3-dihydro-2H-benzo[d]imidazol-2-one], the Kd was determined as 0.012 µM.
`CNC(=O)c1ccc2c(c1)nc(C(C)C)n2-c1ccc2[nH]c(=O)[nH]c2c1` [Example 16, 2-Isopropyl-N-methyl-2′-oxo-2′,3′-dihydro-1′H-[1,5′-bibenzo[d]imidazole]-5-carboxamide]: the Kd turned out to be 0.011 µM.
Consider `CNC(=O)c1ccc2c(c1)nc(-c1cc(-c3cncn3C)nc3ccccc13)n2-c1ccc2c(c1)n(C)c(=O)n2C` [Example 17, N,1′,3′-Trimethyl-2-(2-(1-methyl-1H-imidazol-5-yl)quinolin-4-yl)-2′-oxo-2′,3′-dihydro-1′H-[1,5′-bibenzo[d]imidazole]-5-carboxamide], for which the Kd is 0.042 µM.
Then `CNC(=O)c1ccc2c(c1)nc(-c1ccccc1)n2-c1ccc2[nH]c(=O)[nH]c2c1` [Example 10, N-Methyl-2′-oxo-2-phenyl-2′,3′-dihydro-1′H-[1,5′-bibenzo[d]imidazole]-5-carboxamide], with 0.088 µM.
